According to ChEMBL document CHEMBL3832547, “Goodman and Gilman Ed. 12 | The Pharmaceutical Basis of Therapeutics| Table AII-I: Pharmacokinetic Data” (2011):

Key:
[1] = (§1) Pharmacokinetic parameters for Letrozole evaluated following single oral administration of Letrozole tablets; type: ADME, organism-based; set-up: dose 2.5 mg, route oral; conditions: human, in vivo, 2.5 mg
Homo sapiens = experiment: as §1; type: ADME, organism-based; set-up: dose 2.5 mg, route oral; conditions: in vivo

CL/F [1]: 0.58 mL/min/kg | Cmax [1]: 115 nM | Tmax [1]: 1 h | dose excreted ([1]; read-out: Excretion): 3.9% | Vd (Homo sapiens): 1.87 L/kg
SMILES: N#Cc1ccc(C(c2ccc(C#N)cc2)n2cncn2)cc1 [LETROZOLE]
